Assay results from patent US6800775B1, “Metal complexes of tripodal ligands” (Ciba Specialty Chemicals Corporation, priority 1999, dated 2004).

How the values were obtained:
[1] = DTI (dye transfer inhibition) test, white cotton in wash liquor with dissolved test dye; conditions: complex 20 μmol/l wash liquor, 8.6 mmol/l H2O2, 40° C., 30 min; for DTI effect a(%) Dye 1: Direct Brown 172 10 mg/l of the 250% formulation; for DTI effect a(%) Dye 2: Reactive Blue 238 6 mg/l of the 100% formulation
Description: The catalysts were tested for DTI activity. The DTI (dye transfer inhibition) effect a is defined as the following percentage:
a=([Y(E)−Y(A)]/[Y(W)−Y(A)])*100
where Y(W), Y(A) and Y(E) are the CIE lightnesses of the white material, of the material treated without added catalyst and of the material treated with added catalyst, in that order. a=0 characterizes a product of nil utility, the inclusion of which in the wash liquor does nothing to impede dye transfer. a=100%, by contrast, defines a perfect catalyst, which completely suppresses the tainting of the white material.
The test data are determined using the following testing system: 7.5 g of white cotton are treated in 80 ml of wash liquor. This liquor contains the standard detergent ECE phosphate-free (456 IEC) EMPA, Switzerland, in a concentration of 7.5g/l, 8.6 mmol/l H2O2, and a solution of the test dye. The washing process is carried out in a pot in a LINITEST apparatus at 40° C. for 30 min. Commercially available Direct Brown 172 (dye 1) at 10 mg/l of the 250% formulation or Reactive Blue 238 (dye 2) at 6 mg/l of the 100% formulation were used as test dyes. The reflectants spectra of the samples were measured with a SPECTRAFLASH 2000 and transformed into D65/10 lightnesses by the CIE standard procedure.
The manganese complexes are synthesized either as described in Example 13 or in situ by adding the corresponding manganese(III) salt in ethanolic solution. The complexes are always used at 20 μmol/l wash liquor. It is evident from the table that the recited catalysts are very effective DTI catalysts. […]

[2] = Bleach test, tea stain on cotton fabric; conditions: 100 μmol/l ligand; 8.6 mmol/l hydrogen peroxide; 40° C., 30 minutes; H2O2 only gives 18
Description: The bleach tests are carried out as follows: 7.5 g of white cotton fabric and 2.5 g of a tea stain on cotton fabric are treated in 80 ml of wash liquor. This liquor contains the standard laundry detergent ECE phosphate-free (456 IEC) EMPA, Switzerland in a concentration of 7.5 g/l, hydrogen peroxides in a concentration of 8.6 mmol/l and optionally 100 μmol/l of one of the ligands according to the invention. The washing process takes place in a steel pot in a LINITEST apparatus at 40° C. for 30 minutes. The bleaching results are evaluated using the increase in lightness DY (lightness difference as per CIE) of the stain due to the treatment.

SMILES | DTI effect a(%) Dye 1 [1] [%] | DTI effect a(%) Dye 2 [1] [%] | DY with H2O2 and ligand (increase in lightness of the stain) [2]
Oc1ccccc1/C=N\CCN(CC/N=C/c1ccccc1O)CC/N=C/c1ccccc1O [Example 1, N,N′,N″-Tris[salicylideneaminoethyl]amine] | 91 | 96 | 
CCN(CC)c1ccc(C=NCCN(CCN=Cc2ccc(N(CC)CC)cc2O)CC/N=C/c2ccc(N(CC)CC)cc2O)c(O)c1 [Example 2, N,N′,N″-Tris[4-N-diethylaminosalicylideneaminoethyl]amine] | 78 | 73 | 21
CN(C)c1ccc(/C=N\CCN(CC/N=C/c2ccc(N(C)C)cc2O)CC/N=C/c2ccc(N(C)C)cc2O)c(O)c1 [Example 3, N,N′,N″-Tris[4-N-dimethylaminosalicylideneaminoethyl]amine] | 85 | 80 | 22
COc1ccc(/C=N\CCN(CC/N=C/c2ccc(OC)cc2O)CC/N=C/c2ccc(OC)cc2O)c(O)c1 [Example 4, N,N′,N″-Tris[4-methoxysalicylideneaminoethyl]amine] | 83 | 67 | 
Oc1ccc(/C=N\CCN(CC/N=C/c2ccc(O)cc2O)CC/N=C/c2ccc(O)cc2O)c(O)c1 [Example 5, N,N′,N″-Tris[4-hydroxysalicylideneaminoethyl]amine] | 78 | 27 | 
O=[N+]([O-])c1ccc(O)c(C=NCCN(CCN=Cc2cc([N+](=O)[O-])ccc2O)CC/N=C/c2cc([N+](=O)[O-])ccc2O)c1 [Example 6, N,N′, N″-Tris[5-nitrosalicylideneaminoethyl]amine] | 70 | 80 | 
CC(C)N(C)c1ccc(C=NCCN(CCN=Cc2ccc(N(C)C(C)C)cc2O)CC/N=C/c2ccc(N(C)C(C)C)cc2O)c(O)c1 [Example 7, N,N′,N″-Tris[(4-N-methyl-N-isopropylamino)salicylideneaminoethyl]amine] | 84 | 83 | 21
CCN(C)c1ccc(C=NCCN(CCN=Cc2ccc(N(C)CC)cc2O)CC/N=C/c2ccc(N(C)CC)cc2O)c(O)c1 [Example 8, N,N′,N″-Tris[(4-N-methyl-N-ethylamino)salicylideneaminoethyl]amine] | 85 | 81 | 22
Cc1ccc(C=NCCN(CCN=Cc2ccc(C)cc2O)CC/N=C/c2ccc(C)cc2O)c(O)c1 [Example 9, N,N′,N″-Tris[4-methylsalicylideneaminoethyl]amine] | 87 | 94 | 
C[N+](C)(C)c1ccc(C=NCCN(CCN=Cc2ccc([N+](C)(C)C)cc2O)CC/N=C/c2ccc([N+](C)(C)C)cc2O)c(O)c1.[Br-].[Br-].[Br-] [Example 10, N,N′, N″-Tris[4-trimethylammoniosalicylideneaminoethyl]amine tribromide] | 90 | 96 | 
C[N+](C)(C)c1ccc(O)c(C=NCCN(CCN=Cc2cc([N+](C)(C)C)ccc2O)CC/N=C/c2cc([N+](C)(C)C)ccc2O)c1.[Br-].[Br-].[Br-] [Example 11, N,N′,N″-Tris[5-trimethylammoniosalicylideneaminoethyl]amine tribromide] | 86 | 94 | 
O=S(=O)([O-])c1ccc(O)c(C=NCCN(CCN=Cc2cc(S(=O)(=O)[O-])ccc2O)CC/N=C/c2cc(S(=O)(=O)[O-])ccc2O)c1.[Na+].[Na+].[Na+] [Example 12, N,N′,N″-Tris[5-sulfonatosalicylideneaminoethyl]amine, trisodium salt] | 80 | 99 | 
